Calls of active or inactive are those of the source.
How the values were obtained:
[1] = biological target: Mitogen-activated protein kinase kinase kinase kinase 4 (Homo sapiens, UniProt O95819); assay type: functional
[2] = biological target: Dual specificity protein kinase CLK4 (Homo sapiens, UniProt Q9HAZ1); assay type: functional
[3] = biological target: T1, Interleukin-1 receptor-associated kinase 4 (Homo sapiens, UniProt Q9NWZ3); assay type: functional
T1 sequence (Q9NWZ3 whole entry): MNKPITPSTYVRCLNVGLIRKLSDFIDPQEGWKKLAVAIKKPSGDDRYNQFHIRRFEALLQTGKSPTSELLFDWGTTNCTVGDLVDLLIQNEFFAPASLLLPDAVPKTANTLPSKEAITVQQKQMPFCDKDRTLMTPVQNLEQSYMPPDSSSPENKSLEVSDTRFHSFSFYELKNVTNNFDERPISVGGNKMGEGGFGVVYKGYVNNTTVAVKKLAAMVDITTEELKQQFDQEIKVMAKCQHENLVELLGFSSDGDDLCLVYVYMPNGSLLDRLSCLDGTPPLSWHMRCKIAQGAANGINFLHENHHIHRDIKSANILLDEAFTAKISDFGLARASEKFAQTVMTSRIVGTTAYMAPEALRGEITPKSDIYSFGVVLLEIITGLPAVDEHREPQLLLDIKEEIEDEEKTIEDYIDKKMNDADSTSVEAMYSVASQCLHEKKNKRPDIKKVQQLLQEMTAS

[4] = biological target: Homeodomain-interacting protein kinase 2 (Homo sapiens, UniProt Q9H2X6); assay type: functional;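 note: measured within a kinome-wide kinase profiling panel, HIPK2 being one panel member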
[5] = biological target: Serine/threonine-protein kinase pim-1 (Homo sapiens, UniProt P11309); assay type: functional
[6] = biological target: cAMP-dependent protein kinase catalytic subunit alpha (Homo sapiens, UniProt P17612); assay type: functional
[7] = biological target: Glycogen synthase kinase-3 beta (Homo sapiens, UniProt P49841); assay type: functional;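 note: value comes from a broad kinome profiling panel, with GSK3B as the panel member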
[8] = biological target: Cell division cycle 7-related protein kinase (Homo sapiens, UniProt O00311); assay type: functional;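 note: value obtained from a kinome-wide kinase panel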
[9] = biological target: T2, Hepatocyte nuclear factor 4-alpha (Homo sapiens, UniProt P41235); assay type: functional, cell-based;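 note: biochemical luminescence-based dose-response counterscreen measuring inhibition of HNF4 dimerization, run alongside a screen for blockers of ABHD5–perilipin-5 interaction; split luciferase complementation of HNF4 fusion proteins in cell lysate measuring dimerization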
T2 sequence (P41235 whole entry): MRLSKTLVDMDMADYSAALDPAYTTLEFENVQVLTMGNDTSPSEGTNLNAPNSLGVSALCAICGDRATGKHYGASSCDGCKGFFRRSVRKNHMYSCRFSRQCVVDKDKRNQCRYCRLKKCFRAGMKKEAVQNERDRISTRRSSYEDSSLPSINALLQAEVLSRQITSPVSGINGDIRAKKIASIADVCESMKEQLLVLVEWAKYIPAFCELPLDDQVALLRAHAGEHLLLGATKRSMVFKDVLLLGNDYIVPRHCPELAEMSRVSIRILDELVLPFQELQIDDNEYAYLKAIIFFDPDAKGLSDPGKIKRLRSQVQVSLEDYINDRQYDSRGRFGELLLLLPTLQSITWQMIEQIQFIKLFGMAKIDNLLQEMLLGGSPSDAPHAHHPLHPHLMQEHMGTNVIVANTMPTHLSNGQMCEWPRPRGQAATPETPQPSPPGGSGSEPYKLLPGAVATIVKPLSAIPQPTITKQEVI

[10] = biological target: ATP-dependent molecular chaperone HSP82 (Candida albicans (strain WO-1) (Yeast), UniProt C4YTQ8); test: steroid-induced GRE reporter decrease in yeast – S. cerevisiae, luminescence, Hsp90 inhibitor project, dose response (AID 2400); assay type: functional, cell-based;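 note: beta-galactosidase luminescence from glucocorticoid response element reporter as proxy for Hsp90 function; inhibitor potency where signal loss means Hsp90 inhibition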
INS1 = test: INS-1E survival protection against cytokine death – cell-based, luminescence, retest, dose response (AID 449756); assay type: functional; details: Rattus norvegicus;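 note: cell death triggered by IL-1 beta plus TNF-alpha plus IFN-gamma mixture; protective hits raise ATP signal compared with cytokine alone wells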
Streptokinase A = biological target: T3, Streptokinase A (Streptococcus pyogenes serotype M1, UniProt P10520); test: viability-normalized secreted streptokinase activity reduction – plasminogen activation absorbance, OD405, dose response (AID 1914); assay type: functional, Streptococcus pyogenes M1 GAS;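 note: secreted streptokinase activity via plasminogen activation per viability signal from cell pellet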
T3 sequence (P10520 whole entry): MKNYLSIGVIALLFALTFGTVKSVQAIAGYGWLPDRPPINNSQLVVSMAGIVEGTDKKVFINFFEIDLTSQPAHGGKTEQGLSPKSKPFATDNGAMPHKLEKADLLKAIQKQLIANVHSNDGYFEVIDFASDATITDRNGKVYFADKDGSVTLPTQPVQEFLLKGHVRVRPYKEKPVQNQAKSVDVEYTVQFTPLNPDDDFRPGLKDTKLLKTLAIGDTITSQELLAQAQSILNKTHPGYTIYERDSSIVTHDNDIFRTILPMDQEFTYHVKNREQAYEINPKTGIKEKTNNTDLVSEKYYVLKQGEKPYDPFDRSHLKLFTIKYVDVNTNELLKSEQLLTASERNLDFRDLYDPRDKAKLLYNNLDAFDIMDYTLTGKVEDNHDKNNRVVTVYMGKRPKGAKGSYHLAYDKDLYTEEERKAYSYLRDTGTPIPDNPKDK

[11] = biological target: T4, Serine/threonine-protein phosphatase (Candida dubliniensis (strain CD36 / CBS 7987 / NCPF 3949 / NRRLY-17841) (Yeast), UniProt B9W6M3); test: blockers of CaCl2-induced CDRE-lacZ signaling – S. cerevisiae, luminescence, secondary, dose response (AID 2388); assay type: functional, cell-based;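 note: yeast reporter cells carrying a calcineurin-responsive lacZ construct stimulated with calcium chloride; luminescent beta-galactosidase reporter signal in whole cells rather than isolated phosphatase activity; potency for inhibition where a drop in reporter signal means calcineurin blockade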
T4 sequence (B9W6M3 whole entry): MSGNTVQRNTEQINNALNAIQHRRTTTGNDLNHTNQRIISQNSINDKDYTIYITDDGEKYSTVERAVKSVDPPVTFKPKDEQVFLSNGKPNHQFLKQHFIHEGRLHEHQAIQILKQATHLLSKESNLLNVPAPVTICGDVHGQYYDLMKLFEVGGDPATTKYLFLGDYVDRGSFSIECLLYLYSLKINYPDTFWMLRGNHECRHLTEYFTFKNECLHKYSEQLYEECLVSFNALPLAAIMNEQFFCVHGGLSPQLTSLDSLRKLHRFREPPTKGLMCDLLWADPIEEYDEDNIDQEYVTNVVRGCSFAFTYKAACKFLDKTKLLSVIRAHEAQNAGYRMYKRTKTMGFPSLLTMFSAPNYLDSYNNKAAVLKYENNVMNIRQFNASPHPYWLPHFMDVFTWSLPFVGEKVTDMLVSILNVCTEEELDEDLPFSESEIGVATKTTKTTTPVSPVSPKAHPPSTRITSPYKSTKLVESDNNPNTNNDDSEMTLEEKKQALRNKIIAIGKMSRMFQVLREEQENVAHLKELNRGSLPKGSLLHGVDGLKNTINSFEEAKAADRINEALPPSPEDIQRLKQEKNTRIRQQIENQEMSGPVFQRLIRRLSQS

cells [12] = assay type: functional, cell-based
cells [13] = assay type: functional, cell-based; remark: listed apart in the source
[14] = alpha-synuclein stem-loop luciferase translation blockers – H4 neuroglioma cells, luminescence, confirmation (AID 1988); assay type: functional, cell-based
[15] = reduction of Shn3 3'UTR-driven luciferase in osteoblasts – cell-based, Clone20 osteoblasts, firefly luciferase, cherry-picked, dose response (AID 624132); assay type: functional;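 note: firefly luciferase luminescence from reporter carrying the Shn3 3'UTR in osteoblasts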
[16] = loss of viability in HepG2 cells – cell-based, CellTiter-Glo, cherry-picked, cytotoxicity control for Shn3 inhibitor project, dose response (AID 624134); assay type: functional
[17] = NIH3T3 cell viability loss – ATP luminescence, mouse fibroblasts, counter-screen, dose response (AID 2010); assay type: functional, cell-based;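 note: cells exposed to compound for about 90 hours before reading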
[18] = fluconazole-exposed Candida albicans growth modulators – fluorescence, retest, confirmation (AID 2467); assay type: functional, cell-based
Streptococcus = test: GAS UMAA2166 growth inhibition – luminescence, BacTiterGlo, counter-screen for streptokinase expression inhibitor project, dose response (AID 1915); assay type: functional, organism-based;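 note: potency for reduction of bacterial viability or growth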
[19] = biological target: Heat shock protein HSP 90-alpha (Homo sapiens, UniProt P07900); assay type: functional, organism-based
[20] = NIH-3T3 fibroblast cytotoxicity, dose response, cytotoxicity control, cell-based, fluorescence, Alamar Blue, secondary assay (AID 2327); assay type: functional;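 note: NIH-3T3 mouse fibroblasts cultured with fluconazole at 8 µg/mL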
[21] = luciferase reporter signal suppression in cells – H4 neuroglioma cells, luminescence, dose response (AID 1990); assay type: functional, cell-based
[22] = system: Streptococcus sp. 'group A'; test: Streptococcus pyogenes SK(-)GAS viability under kanamycin – luminescence, BacTiterGlo, confirmation, counter-screen for streptokinase expression inhibitor project, dose response (AID 1900); assay type: functional, organism-based
[23] = non-specific 3'UTR reporter inhibition in Clone20-Shn3RL – cell-based, Renilla luciferase, cherry-picked, counter-screen for Shn3 inhibitor project, dose response (AID 624133); assay type: functional
[24] = Luminescence Cell-Based Dose Response HTS to Identify Inhibitors of 5'UTR Stem-Loop Driven Prion Protein mRNA Translation in H4 Neuroglioblastoma Cells. [Related pubchem assays: 1827 (Project Summary), 1813 (Primary HTS)]; assay type: functional
[25] = Trypanosoma cruzi growth suppression in host cells – NIH3T3 host cells, beta-gal luminescence, confirmation (AID 2044); assay type: functional, cell-based;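 note: intracellular parasites grown in NIH/3T3 mouse fibroblasts as host cells; luminescent beta-galactosidase reporter signal from transgenic T. cruzi replicating inside host cells; inhibitors lower the luminescence signal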
[26] = biological target: T5, Short transient receptor potential channel 4 (Mus musculus, UniProt Q9QUQ5); test: block of DAMGO-driven TRPC4 calcium entry – cell-based, HEK293 TRPC4/mu-opioid, Fluo-4 calcium, dose response (AID 434942); assay type: functional;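 note: potency of inhibitors blocking the TRPC4 calcium response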
T5 sequence (Q9QUQ5 whole entry): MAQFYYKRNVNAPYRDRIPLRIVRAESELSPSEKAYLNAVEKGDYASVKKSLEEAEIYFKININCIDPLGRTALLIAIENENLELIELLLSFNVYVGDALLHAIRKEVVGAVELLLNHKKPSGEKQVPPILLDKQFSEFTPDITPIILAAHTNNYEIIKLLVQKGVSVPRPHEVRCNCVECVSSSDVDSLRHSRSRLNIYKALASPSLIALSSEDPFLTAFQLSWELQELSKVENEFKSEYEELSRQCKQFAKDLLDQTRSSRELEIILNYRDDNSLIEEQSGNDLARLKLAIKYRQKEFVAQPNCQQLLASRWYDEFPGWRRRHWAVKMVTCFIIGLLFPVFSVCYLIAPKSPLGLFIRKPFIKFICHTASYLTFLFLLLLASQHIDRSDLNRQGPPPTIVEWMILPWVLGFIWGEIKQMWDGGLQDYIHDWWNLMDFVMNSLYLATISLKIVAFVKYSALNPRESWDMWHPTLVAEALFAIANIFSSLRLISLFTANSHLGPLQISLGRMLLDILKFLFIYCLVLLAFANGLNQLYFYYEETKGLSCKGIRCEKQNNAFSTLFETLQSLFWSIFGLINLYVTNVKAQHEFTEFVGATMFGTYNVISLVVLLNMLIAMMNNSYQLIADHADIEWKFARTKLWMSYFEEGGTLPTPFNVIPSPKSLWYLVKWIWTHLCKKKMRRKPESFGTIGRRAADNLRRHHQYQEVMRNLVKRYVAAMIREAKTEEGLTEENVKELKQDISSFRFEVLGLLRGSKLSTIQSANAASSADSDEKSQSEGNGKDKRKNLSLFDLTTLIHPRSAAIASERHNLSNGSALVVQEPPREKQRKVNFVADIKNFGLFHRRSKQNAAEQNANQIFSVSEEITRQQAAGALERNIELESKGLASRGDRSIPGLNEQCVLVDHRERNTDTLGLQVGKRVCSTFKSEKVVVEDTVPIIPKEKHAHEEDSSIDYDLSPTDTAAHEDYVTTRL

[27] = Vero E6 cell cytotoxicity, dose response, cytotoxicity control for non-replicating M. tuberculosis project, secondary assay (AID 492998); assay type: functional, VeroE6; details: Vero C1008
[28] = HepG2 cell cytotoxicity, dose response, cytotoxicity control for non-replicating M. tuberculosis project (AID 489018); assay type: functional; details: Mycobacterium tuberculosis
[29] = microbe, parasite or virus in culture; assay type: functional; details: Mycobacterium tuberculosis
cells [30] = assay type: functional
[31] = THP-1 cell cytotoxicity, dose response, cytotoxicity control for non-replicating M. tuberculosis project (AID 489025); assay type: functional

Cell division cycle 7-related protein kinase, sequence (O00311 whole entry, the tested form may be a part): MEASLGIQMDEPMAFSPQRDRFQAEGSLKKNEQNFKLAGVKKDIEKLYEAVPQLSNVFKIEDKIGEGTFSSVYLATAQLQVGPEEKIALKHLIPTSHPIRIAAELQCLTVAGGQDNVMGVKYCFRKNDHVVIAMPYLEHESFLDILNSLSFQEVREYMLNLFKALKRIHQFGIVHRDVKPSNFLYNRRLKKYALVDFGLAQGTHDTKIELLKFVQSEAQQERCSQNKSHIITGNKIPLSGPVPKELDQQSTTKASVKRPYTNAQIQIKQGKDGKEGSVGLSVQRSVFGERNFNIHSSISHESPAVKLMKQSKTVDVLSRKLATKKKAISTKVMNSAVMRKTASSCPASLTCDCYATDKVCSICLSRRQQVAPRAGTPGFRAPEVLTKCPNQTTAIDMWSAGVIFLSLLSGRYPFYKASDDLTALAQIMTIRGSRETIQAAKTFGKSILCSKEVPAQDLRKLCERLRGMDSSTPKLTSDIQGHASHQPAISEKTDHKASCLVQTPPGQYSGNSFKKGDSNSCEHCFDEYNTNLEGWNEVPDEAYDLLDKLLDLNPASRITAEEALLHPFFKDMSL
Glycogen synthase kinase-3 beta, sequence (P49841 whole entry): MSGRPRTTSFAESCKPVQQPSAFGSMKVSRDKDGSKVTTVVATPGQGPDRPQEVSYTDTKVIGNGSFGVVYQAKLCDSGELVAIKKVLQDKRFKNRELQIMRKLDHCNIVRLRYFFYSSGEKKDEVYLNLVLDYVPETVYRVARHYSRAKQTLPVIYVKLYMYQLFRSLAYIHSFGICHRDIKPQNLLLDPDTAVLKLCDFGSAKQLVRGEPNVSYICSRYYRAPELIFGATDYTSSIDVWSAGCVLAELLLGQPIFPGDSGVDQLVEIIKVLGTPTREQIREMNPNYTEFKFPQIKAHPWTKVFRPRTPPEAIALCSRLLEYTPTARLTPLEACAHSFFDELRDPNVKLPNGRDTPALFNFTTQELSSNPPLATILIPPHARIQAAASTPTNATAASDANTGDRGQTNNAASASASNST
Dual specificity protein kinase CLK4, sequence (Q9HAZ1 whole entry): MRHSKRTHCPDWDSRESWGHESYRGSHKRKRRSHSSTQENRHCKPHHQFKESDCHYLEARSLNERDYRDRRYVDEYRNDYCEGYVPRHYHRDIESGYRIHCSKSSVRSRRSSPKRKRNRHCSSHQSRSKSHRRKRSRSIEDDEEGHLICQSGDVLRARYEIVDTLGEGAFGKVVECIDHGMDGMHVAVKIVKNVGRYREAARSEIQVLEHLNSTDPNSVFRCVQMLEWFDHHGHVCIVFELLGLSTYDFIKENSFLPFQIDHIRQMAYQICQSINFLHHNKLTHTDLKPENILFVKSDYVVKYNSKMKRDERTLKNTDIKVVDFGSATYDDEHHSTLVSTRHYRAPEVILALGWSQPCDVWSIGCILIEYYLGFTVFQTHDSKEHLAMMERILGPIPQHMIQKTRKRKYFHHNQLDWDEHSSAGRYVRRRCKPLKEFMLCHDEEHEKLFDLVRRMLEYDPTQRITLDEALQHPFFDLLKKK
Homeodomain-interacting protein kinase 2, sequence (Q9H2X6 whole entry): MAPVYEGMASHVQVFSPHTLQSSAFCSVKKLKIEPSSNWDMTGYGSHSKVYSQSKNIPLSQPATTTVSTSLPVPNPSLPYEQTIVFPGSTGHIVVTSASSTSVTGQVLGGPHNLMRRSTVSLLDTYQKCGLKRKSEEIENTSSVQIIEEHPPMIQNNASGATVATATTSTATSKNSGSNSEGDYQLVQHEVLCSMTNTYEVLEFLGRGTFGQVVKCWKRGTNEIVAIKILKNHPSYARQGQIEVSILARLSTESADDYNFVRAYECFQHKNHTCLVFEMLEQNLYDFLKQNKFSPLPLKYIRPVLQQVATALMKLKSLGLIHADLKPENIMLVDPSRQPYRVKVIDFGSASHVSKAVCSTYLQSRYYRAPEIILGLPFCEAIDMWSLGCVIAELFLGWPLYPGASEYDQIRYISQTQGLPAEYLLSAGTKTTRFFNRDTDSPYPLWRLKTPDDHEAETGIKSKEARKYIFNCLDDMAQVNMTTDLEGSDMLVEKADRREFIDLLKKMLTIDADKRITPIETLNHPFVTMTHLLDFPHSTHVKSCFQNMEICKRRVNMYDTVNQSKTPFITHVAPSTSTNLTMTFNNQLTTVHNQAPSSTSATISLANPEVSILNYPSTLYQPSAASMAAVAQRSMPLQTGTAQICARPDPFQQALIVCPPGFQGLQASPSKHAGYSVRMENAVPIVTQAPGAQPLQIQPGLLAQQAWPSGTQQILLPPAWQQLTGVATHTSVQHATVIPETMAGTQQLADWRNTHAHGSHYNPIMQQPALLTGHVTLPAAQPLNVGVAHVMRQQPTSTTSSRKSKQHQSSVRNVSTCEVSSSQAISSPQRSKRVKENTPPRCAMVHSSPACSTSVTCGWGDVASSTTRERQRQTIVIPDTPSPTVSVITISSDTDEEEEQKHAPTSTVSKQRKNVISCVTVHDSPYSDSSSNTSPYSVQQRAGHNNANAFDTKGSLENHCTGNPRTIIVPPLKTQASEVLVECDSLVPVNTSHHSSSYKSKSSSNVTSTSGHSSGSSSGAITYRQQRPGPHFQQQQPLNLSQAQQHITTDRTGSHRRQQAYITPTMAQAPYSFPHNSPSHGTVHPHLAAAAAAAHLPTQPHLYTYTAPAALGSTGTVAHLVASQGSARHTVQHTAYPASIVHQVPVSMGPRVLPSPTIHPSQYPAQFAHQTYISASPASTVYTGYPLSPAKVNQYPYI
ATP-dependent molecular chaperone HSP82, sequence (C4YTQ8 whole entry): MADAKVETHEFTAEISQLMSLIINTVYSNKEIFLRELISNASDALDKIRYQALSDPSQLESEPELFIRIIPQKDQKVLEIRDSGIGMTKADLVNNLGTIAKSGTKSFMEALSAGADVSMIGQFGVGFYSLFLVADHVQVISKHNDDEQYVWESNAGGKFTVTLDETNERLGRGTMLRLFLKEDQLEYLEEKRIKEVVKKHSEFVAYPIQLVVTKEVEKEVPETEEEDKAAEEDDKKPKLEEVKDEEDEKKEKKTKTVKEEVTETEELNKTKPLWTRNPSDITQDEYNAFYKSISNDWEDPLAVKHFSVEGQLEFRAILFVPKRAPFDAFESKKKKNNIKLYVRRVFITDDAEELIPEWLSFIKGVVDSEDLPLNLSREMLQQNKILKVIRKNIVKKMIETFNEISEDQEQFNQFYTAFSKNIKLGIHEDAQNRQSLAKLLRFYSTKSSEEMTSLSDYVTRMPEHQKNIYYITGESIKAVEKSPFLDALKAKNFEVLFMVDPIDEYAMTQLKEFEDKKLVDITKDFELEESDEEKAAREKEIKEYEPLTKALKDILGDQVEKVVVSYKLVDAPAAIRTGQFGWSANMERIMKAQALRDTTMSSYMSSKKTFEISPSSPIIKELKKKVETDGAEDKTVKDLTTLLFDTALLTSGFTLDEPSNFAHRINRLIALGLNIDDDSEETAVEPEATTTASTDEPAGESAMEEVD
Serine/threonine-protein kinase pim-1, sequence (P11309 whole entry): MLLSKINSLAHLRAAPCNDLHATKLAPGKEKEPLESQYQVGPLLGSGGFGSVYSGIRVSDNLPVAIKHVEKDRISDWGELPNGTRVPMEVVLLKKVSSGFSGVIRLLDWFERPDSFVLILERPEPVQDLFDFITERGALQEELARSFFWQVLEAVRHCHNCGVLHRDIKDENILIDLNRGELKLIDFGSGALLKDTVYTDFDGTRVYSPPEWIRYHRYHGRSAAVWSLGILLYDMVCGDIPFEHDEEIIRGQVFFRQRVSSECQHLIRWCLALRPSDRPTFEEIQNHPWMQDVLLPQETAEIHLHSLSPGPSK
Mitogen-activated protein kinase kinase kinase kinase 4, sequence (O95819 whole entry): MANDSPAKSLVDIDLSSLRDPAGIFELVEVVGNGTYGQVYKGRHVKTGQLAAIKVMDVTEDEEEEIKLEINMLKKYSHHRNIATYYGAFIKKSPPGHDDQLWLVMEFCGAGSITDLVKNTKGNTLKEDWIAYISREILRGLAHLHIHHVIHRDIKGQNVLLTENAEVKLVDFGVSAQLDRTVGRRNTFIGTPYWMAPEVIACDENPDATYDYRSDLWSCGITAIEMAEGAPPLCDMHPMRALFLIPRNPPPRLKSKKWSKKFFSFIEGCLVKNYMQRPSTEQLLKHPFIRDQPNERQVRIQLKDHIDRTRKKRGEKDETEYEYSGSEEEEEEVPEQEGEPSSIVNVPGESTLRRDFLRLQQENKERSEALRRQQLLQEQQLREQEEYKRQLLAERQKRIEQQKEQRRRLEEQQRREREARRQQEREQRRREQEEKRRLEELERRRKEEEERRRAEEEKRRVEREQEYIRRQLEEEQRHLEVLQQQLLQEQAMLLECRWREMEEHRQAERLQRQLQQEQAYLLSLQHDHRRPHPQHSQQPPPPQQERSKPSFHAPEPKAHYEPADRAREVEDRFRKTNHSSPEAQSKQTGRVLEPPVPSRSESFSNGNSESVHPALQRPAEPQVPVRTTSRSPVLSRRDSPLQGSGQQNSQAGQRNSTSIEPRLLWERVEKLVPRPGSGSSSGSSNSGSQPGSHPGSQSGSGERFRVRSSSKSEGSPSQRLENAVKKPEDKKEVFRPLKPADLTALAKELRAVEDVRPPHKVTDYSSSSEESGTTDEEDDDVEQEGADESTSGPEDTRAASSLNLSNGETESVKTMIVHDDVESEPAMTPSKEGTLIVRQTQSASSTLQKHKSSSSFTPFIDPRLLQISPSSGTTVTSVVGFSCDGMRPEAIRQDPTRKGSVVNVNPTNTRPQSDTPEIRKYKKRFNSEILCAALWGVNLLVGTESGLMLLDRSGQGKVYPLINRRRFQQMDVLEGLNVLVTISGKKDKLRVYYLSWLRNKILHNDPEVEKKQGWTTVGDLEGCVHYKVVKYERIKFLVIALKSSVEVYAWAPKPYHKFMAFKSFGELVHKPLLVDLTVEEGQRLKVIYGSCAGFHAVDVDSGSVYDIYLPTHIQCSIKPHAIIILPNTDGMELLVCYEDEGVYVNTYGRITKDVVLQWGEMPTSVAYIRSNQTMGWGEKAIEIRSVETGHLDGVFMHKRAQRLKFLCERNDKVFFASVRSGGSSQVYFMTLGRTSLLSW

SMILES	Ki [2]	Ki [3]	Ki [4]	Ki [5]	Ki [6]	Ki [7]	Ki [8]	IC50 [9]	EC50 [10]	EC50 [11]	EC50 [18]	EC50 [20]	other results
Fc1cccc(-c2c[nH]c3ncccc23)c1	0.0398 µM (active)	2.51 µM (active)	1 µM (active)	7.94 µM (active)	2.51 µM (active)	2 µM (active)	0.0631 µM (active)						Ki [1]: 0.00316 µM (active)
COc1ccc(NC(=O)C(c2ccnc3ccccc23)n2c(=O)c(-c3ccco3)nc3ccccc32)cc1 (stereo not given)								10.9 µM (inactive)					
CCCCCNC(=O)C(c1ccc(C#N)cc1)n1c(=O)c(-c2ccco2)nc2ccccc21 (stereo not given)								3.24 µM (active)					
CCCCOc1cc(-c2ccncc2)cc2[nH]nc(N)c12	0.01 µM (active)	0.631 µM (active)	0.794 µM (active)	1.58 µM (active)	1.26 µM (active)	0.631 µM (active)	0.0158 µM (active)						Ki [1]: 0.251 µM (active)
C=CCNc1cc(-c2c[nH]c3ncccc23)cc(Cl)n1	0.00398 µM (active)	0.631 µM (active)	0.0501 µM (active)	0.794 µM (active)	0.398 µM (active)	0.1 µM (active)	0.000794 µM (active)						
Oc1c(CN2CCN(c3ccc(F)cc3)CC2)cc(Cl)c2cccnc12									> 160 µM (inactive)	> 180 µM (inactive)	0.693 µM (active)	26.1 µM (active)	AC50 (INS1): 1.27 µM (active); EC50 (Streptokinase A): > 150 µM (not active); EC50 (cells [12]): 69.4 µM (active); EC50 (cells [13]): > 350 µM (not active); EC50 [14]: 0.192 µM (active); AC50 [15]: 1.32 µM (active); AC50 [16]: > 70 µM (inactive); EC50 [17]: 8.2 µM (active); EC50 (Streptococcus): 10.8 µM (active); AC50 [19]: 7.92 µM (active); EC50 [21]: 0.2 µM (active); EC50 [22]: 1.56 µM (active); AC50 [23]: 0.534 µM (active); EC50 [24]: 0.157 µM (active); EC50 [25]: 0.465 µM (active)
O=C(NC1CCCCC1)C(c1ccc(C(F)(F)F)cc1)n1c(=O)c(-c2ccco2)nc2ccccc21 (stereo not given)								2.41 µM (active)					
COc1ccc(C(C(=O)NCc2ccccc2)n2c(=O)c(-c3ccco3)nc3ccccc32)cc1 (stereo not given)								2.46 µM (active)					
CCCCCCCNC(=O)COc1ccc2c(c1)C(=O)CC(C)(C)O2									> 160 µM (inactive)	> 180 µM (inactive)	2.28 µM (active)	> 160 µM (inactive)	EC50 [26]: 0.944 µM (active)
O=c1c2ccc(Cl)cc2nc(-c2ccc([N+](=O)[O-])cc2)n1O									44.6 µM (active)	> 180 µM (inactive)	0.43 µM (active)	99.4 µM (active)	CC50 [27]: 12.1 µM (active); CC50 [28]: 16.8 µM (active); CC50 [29]: 21.4 µM (active); IC50 (cells [30]): 8.17 µM (active); CC50 [31]: 11.8 µM (active)

Source: ChEMBL document CHEMBL1201862, “PubChem BioAssay data set” (2004)
